Reference: patent publication US20250242017A1, “HISTAMINE AND HRH1 SIGNALING ACTIVITY AS BIOMARKERS AND ASSOCIATED METHODS” (Board of Regents, The University of Texas System, priority 2022, published 2025)

Key:
VISTA+ BMDMs = assay: VISTA membrane expression on macrophages after Ca2+ flux modulation; assay type: cell-based, mouse
Excerpt: (§1) Flow cytometry staining and analysis.

CD8+ T cells = assay: In vitro co-culture of macrophages with T cells; assay type: cell-based, mouse
Description: In vitro co-culture with T cells. Spleens from wild-type C57BL/6 or BALB/c mice were harvested and filtered through a […] cell strainer to generate a single-cell suspension. After red blood cell lysis, splenocytes were counted and plated in complete Roswell Park Memorial Institute 1640 medium supplemented with […] b-mercaptoethanol and 10 mM HEPES onto 12-well plates coated with […] anti-CD3 (clone 145-2C11, BioLegend) and […] anti-CD28 (clone 37N, BioLegend) antibodies. Spleen T cells were activated for 48 hours before co-culture with macrophages. To educate the macrophages, we co-cultured naïve BMDMs with tumor cells at a ratio of 1:1 or with tumor cell-derived conditioned medium for 48 hours. Macrophages were seeded with activated T cells at a ratio of 5:1. After co-culture for another 24 or 48 hours, T cells were collected for flow cytometry analysis.
as §1

[1] = system: OVA-transduced EO771 tumor cells; assay: In vitro T cell killing assay (OT-I); assay type: cell-based, mouse; details: in presence of FEXO-treated macrophages
Description: In vitro T cell killing assays. Ovalbumin (OVA)-expressing EO771 cells alone or co-cultured with macrophages at a ratio of 1:2 were plated into 12-well plates. The following day, OT-I T cells pre-activated by OVA257-264 were added to the plates at the indicated ratio. After co-culture for another 48 hours, the tumor cells were harvested and counted to determine T cell killing ability.

macrophages = assay: Intracellular calcium measurement (Fluo-Forte); assay type: cell-based, mouse; details: after histamine or TCM treatment
Description: Intracellular calcium measurement. Intracellular Ca2+ was determined using the Fluo-Forte calcium assay kit (Enzo Life Sciences) according to the manufacturer's instructions. Fluorescence was measured using a BD FACSCanto II Flow Cytometer.

EO771 tumors = system: EO771 tumors
Excerpt: (§2) Tumor inductions and treatment experiments.
(§3) Isolation of tumor-infiltrating cells.
as §1

4T1 tumors = assay: 4T1 mammary tumor model; assay type: in vivo, mouse
Excerpt: as §2, §3, §1

LLC tumors = assay: LLC lung carcinoma model; assay type: in vivo, mouse; details: FEXO-treated vs vehicle-treated
Excerpt: as §2, §3, §1

EMT6 tumors = assay: EMT6 tumor model with or without OVA-induced allergic airway disease; assay type: in vivo, mouse
Excerpt: as §2, §3, §1

CT26 tumors [2] = assay: CT26 tumor model with or without OVA-induced allergic airway disease; assay type: in vivo, mouse
Excerpt: as §2, §3, §1

[3] = system: bone marrow-derived macrophages (BMDMs); details: TCM-treated WT BMDMs; FEXO 10 mM, 48 h
Description: Generation of naïve bone marrow-derived macrophages (BMDMs). Bone marrow cells were collected from femurs obtained from 8- to 10-week-old C57BL/6 or BALB/c mice. After red blood cell lysis, bone marrow cells were seeded at a density of 5×10^6 cells/150×15 mm Petri dish and cultured at 37° C. in complete Dulbecco modified Eagle medium (DMEM) containing 20% L929 cell-conditioned medium, providing macrophage colony-stimulating factor. Macrophages were ready for use on day 7 following a fresh medium change on day 4.
(§4) Macrophage polarization and stimulation. To polarize macrophages toward an M1-like phenotype, we stimulated PBMC-derived macrophages or BMDMs with IFN-g (20 ng/ml, PeproTech) for 48 hours. To induce an M2-like phenotype, we treated THP-1-derived macrophages or BMDMs with IL-4 (20 ng/mL, PeproTech) for 48 hours. […] To stimulate macrophages with tumor cell-derived conditioned medium (TCM), we cultured BMDMs with complete medium containing 50% TCM (volume).
Flow cytometry staining and analysis. Live single cells were sub-gated by staining with Fixable Viability Dye eFluor 450 (eBioscience) for 15 minutes at 4° C. For blocking of Fc receptors, cells were then pre-incubated with purified anti-CD16/32 antibody (clone 93, BioLegend) for 10 minutes on ice before immunostaining. […]

B16-GM tumors = assay: B16-GM melanoma model
Description: Tumor inductions and treatment experiments. […] For LLC and B16-GM models, 2×10^5 tumor cells were subcutaneously injected into the back of C57BL/6 mice. […] Treatments were given as single agents or in combination, with the following regimen for each drug. […] Treatments were initiated on day 5 after tumor inoculation for the entire duration of the experiment. […] Anti-VISTA antibody (clone 13F3, Bio X Cell, 300 mg/mouse) was injected subcutaneously every day for 10 days starting on day 7, followed by continuous injection every 2 days for the rest of the duration of the experiment (Le Mercier et al., 2014). For in vivo CD8+ T cell depletion, mice were treated with 200 mg of anti-CD8 antibody every 3-4 days starting at 3 days before B16-GM tumor inoculation. […] Tumor size was measured by calipers every second or third day when tumors were palpable, and the volume was calculated using the formula V=as (width×width×length)/2.
Isolation of tumor-infiltrating cells. Mouse tumor samples were chopped with scissors and then subjected to enzymatic digestion with 2 mg/ml collagenase A (Roche) in DMEM for 1 hour at 37° C. Next, tissues were filtered through 70-mm filters (BD Biosciences) to achieve single-cell suspensions. After treatment with red blood cell lysis buffer for 5 minutes at room temperature, all samples were washed and re-suspended in flow cytometry buffer (phosphate-buffered saline/0.5% albumin/2 mM EDTA) or DMEM depending on further use.
Flow cytometry staining and analysis. Live single cells were sub-gated by staining with Fixable Viability Dye eFluor 450 (eBioscience) for 15 minutes at 4° C. For blocking of Fc receptors, cells were then pre-incubated with purified anti-CD16/32 antibody (clone 93, BioLegend) for 10 minutes on ice before immunostaining. After one wash with flow cytometry buffer, cells were incubated with appropriate dilutions of various combinations of the following antibodies. Primary antibodies to cell surface markers directed against CD45 (30-F11), CD3 (145-2C11), CD8a (53¬6.7), CD11b (M1/70), Gr-1 (RB6-8C5), F4/80 (BM8), CD206 (C068C2), I-A/I-E (M5/114.15.2), VISTA (MHSA), Tim-3 (B8.2C12), CD11c (N418), CD24 (M1/69), GITRL (YGL 386), ICOSL (HK5.3), 4-1BBL (TKS-1), CD276 (RTAA15), OX40L (RM134L), Galectin-9 (RG9-35), PD-L1 (10F.9G2), and PD-L2 (TY25) were from BioLegend; against HRH1 (480054), from R&D Systems; against HRH1 (AHR-001), from Alomone Labs; and against Siglec-F (E50-2440), from BD Biosciences. For intracellular staining, cells were fixed, permeabilized using Foxp3/Transcription Factor Staining Buffer Set (eBioscience), and then stained with fluorochrome-conjugated antibodies to Ki-67 (16A8) and PRF1 (S16009A) from BioLegend.

CT26 tumors [4] = assay: CT26 colorectal carcinoma model; details: WT mice
Description: Tumor inductions and treatment experiments. […] For the CT26 model, 2×10^5 CT26 cells were subcutaneously injected into the back of BALB/c mice. […] Treatments were given as single agents or in combination, with the following regimen for each drug. […] Treatments were initiated on day 5 after tumor inoculation for the entire duration of the experiment. […] Anti-VISTA antibody (clone 13F3, Bio X Cell, 300 mg/mouse) was injected subcutaneously every day for 10 days starting on day 7, followed by continuous injection every 2 days for the rest of the duration of the experiment (Le Mercier et al., 2014). […] Tumor size was measured by calipers every second or third day when tumors were palpable, and the volume was calculated using the formula V=as (width×width×length)/2.

melanoma patients = assay: Retrospective Epic SlicerDicer analysis of anti-PD-1/PD-L1-treated melanoma patients; assay type: in vivo, human; details: patients taking the medicine during anti-PD-1/PD-L1 treatment vs those who did not
Description: Epic SlicerDicer software analysis. Our retrospective study was conducted on melanoma patients encountered during 2016-2017 at The University of Texas MD Anderson Cancer Center, which draws a diverse range of local, regional, national, and international patients. The study population consisted of all melanoma patients with of International Classification of Diseases (ICD) code C43 (10th version). Anonymized aggregate-level data were collected using the SlicerDicer function within MD Anderson Epic electronic medical records. Institutional Review Board approval was therefore waived. Using the Epic SlicerDicer, we identified 9922 patients with a visit diagnosis, billing diagnosis, or active problem list with malignant skin of melanoma (ICD-10-CM:C43, which includes all subgroups). EPIC SlicerDicer was used to further identify 878 of these patients who received anti-PD-1 antibodies (pembrolizumab, nivolumab, or cemiplimab) or anti-PD-L1 antibodies (durvalumab, atezolizumab, or avelumab) treatment during the study period. […] The estimated patient deaths of each subgroup were calculated based on the patient number of each subgroup and the average patient death rate (39%, based on deceased patients out of total patients analyzed). […] The survival time was calculated as the days between the two dates. […]

[5] = system: early-stage breast cancer; assay: Retrospective analysis of medications in stage 0 or 1 breast cancer patients; assay type: in vivo, human; details: poor outcome = recurrence or death
Excerpt: To explore whether some medications have impact on early-stage breast cancer recurrence, we performed a retrospective analysis of the most commonly prescribed medications took by patients with stage 0 or stage 1 breast cancer. Stage 0 and 1 breast cancers are highly treatable early-stage breast cancers and generally have very good prognosis in the first five years. Typically, surgery, radiation, or a combination of the two are the standard treatments. Hormone therapy, depending on the type of cancer cells and additional risk factors, is also an option. To rule out potential impact of the medications on therapies, patients who received treatment other than surgeries were excluded. 1652 patients diagnosed with stage 0 or 1 breast cancer at MDACC between 2016-2021 were enrolled in the study. 29 patients have been diagnosed with cancer recurrence (1.76%) and 3 out of 29 patients were deceased by 2021. Another 13 patients were also deceased, but whether cancer is the cause of their deaths is not clear. Altogether, total 42 patients (2.54%) have poor clinical outcome, including cancer recurrence or death. We first analyzed the 50 most prescribed drugs in USA which include many common drugs such as Aspirin, Simvastatin, and Metformin. About half of the drugs (24) were took by >100 patients based on their electric health record. To cover more medications, we further expanded the drug list by adding the top 20 over-the-counter medicines (OTC) sold on AMAZON website. To explore potential impact of medications on cancer recurrence and patient mortality, we compared the predicated patient numbers with poor clinical outcomes (X-axis) based on the estimated 2.54% (the ratio of total patients with poor outcome to total number of patients) versus the actual patient number with poor outcomes (Y-axis) of each medication (FIG. 15A). Most medications show limited impacts on patients' outcome, including Aspirin (8.5 vs. 8, estimated vs. actual patient number with poor outcome) and Metformin (3.5 vs 4). […] Instead, antihistamine may intercept or delay early-stage breast cancer progression by enhancing immune surveillance.

peritoneal macrophages = details: histamine 10 mM, vs vehicle-treated
Description: as §4
Flow cytometry staining and analysis. Live single cells were sub-gated by staining with Fixable Viability Dye eFluor 450 (eBioscience) for 15 minutes at 4° C. For blocking of Fc receptors, cells were then pre-incubated with purified anti-CD16/32 antibody (clone 93, BioLegend) for 10 minutes on ice before immunostaining. After one wash with flow cytometry buffer, cells were incubated with appropriate dilutions of various combinations of the following antibodies. […]

[6] = FEXO-treated WT mice vs controls
[7] = FEXO-treated vs vehicle-treated WT mice
[8] = PD-L1-/- mice treated with FEXO

CC(=O)OCOC(=O)CN(CC(=O)OCOC(C)=O)c1ccccc1OCCOc1ccccc1N(CC(=O)OCOC(C)=O)CC(=O)OCOC(C)=O [BAPTA-AM]
HRH1-mediated membrane VISTA expression (VISTA+ BMDMs; WT TAMs, BAPTA-AM): reduced HRH1-mediated membrane VISTA expression

CC(C)(C(=O)O)c1ccc(C(O)CCCN2CCC(C(O)(c3ccccc3)c3ccccc3)CC2)cc1 (stereo not shown) [FEXO, fexofenadine]
T cell activation/killing (CD8+ T cells; FEXO treatment of HRH1-/- macrophages vs vehicle-treated HRH1-/- macrophages): did not increase
TAM-mediated T cell suppression (T cell proliferation, IFN-g, PRF1) (CD8+ T cells; FEXO-treated macrophages cultured with WT splenic T cells): abrogated TAM-mediated T cell suppression
OT-I cell-mediated killing of OVA-transduced EO771 tumor cells [1]: increased ovalbumin (OVA)-specific OT-I cell-mediated killing
intracellular free Ca2+ levels (macrophages): higher in WT macrophages than in HRH1−/− macrophages and FEXO-treated WT macrophages
VISTA expression on TAMs (EO771 tumors; [6]): Reduced VISTA expression
numbers of IFN-g+ and PRF1+ CD8+ T cells (EO771 tumors; [7]): increased numbers
tumor growth (EO771 tumors; [7]): reduced tumor growth
survival (EO771 tumors; [8]): dramatically prolonged survival
tumor inhibition (EO771 tumors; [8]): most effective tumor inhibition
VISTA expression on alveolar macrophages from lung metastases (4T1 tumors; FEXO-treated WT mice bearing 4T1 tumor vs controls): downregulated
VISTA on TAMs (4T1 tumors; FEXO-treated vs vehicle-treated): Decreased VISTA on TAMs
VISTA on TAMs (LLC tumors): Decreased VISTA on TAMs
allergy-accelerated EMT6 tumor growth (EMT6 tumors; OVA-allergic BALB/c mice): largely blocked by FEXO treatment
sensitivity of tumors to ICB therapy with FEXO treatment (EMT6 tumors; allergic mice, ICB+FEXO): largely restored sensitivity
allergy-increased CT26 tumor growth (CT26 tumors [2]; OVA-allergic BALB/c mice): largely blocked by FEXO treatment
sensitivity of tumors to ICB therapy with FEXO treatment (CT26 tumors [2]; allergic mice, ICB+FEXO): largely restored sensitivity
M1-M2 polarization status (MHCII, CD206) [3]: polarized macrophages toward an M1-like phenotype
VISTA expression on TAMs (B16-GM tumors; [6]): Reduced VISTA expression
inhibition of B16-GM tumor growth under CD8+ T cell depletion (B16-GM tumors; FEXO-treated WT mice, anti-CD8 antibodies): blocked by depleting CD8+ T cells
numbers of IFN-g+ and PRF1+ CD8+ T cells (B16-GM tumors; [7]): increased numbers
tumor growth (B16-GM tumors; [7]): reduced tumor growth
B16-GM lung metastases (B16-GM tumors; after surgical removal of primary melanomas at 100 mm3, FEXO vs vehicle): inhibited
CT26 tumor growth (CT26 tumors [4]): delayed tumor growth

CC(=O)Oc1ccccc1C(=O)O [aspirin]
death rate (melanoma patients): reduced death rate
estimated patient number with poor outcome ([5]; based on estimated 2.54% of patients taking the medication): 8.5
actual patient number with poor outcome ([5]; patients taking the medication): 8

CC1(C)S[C@@H]2[C@H](NC(=O)[C@H](N)c3ccccc3)C(=O)N2[C@H]1C(=O)O [ampicillin]
death rate (melanoma patients): increased death rate

C[C@H](CCC(=O)O)C[C@H](C)C[C@H](C)C(=O)/C=C(\O)[C@H](C)C[C@H](C)C/C=C/[C@@H](C)[C@@H](O)[C@@H](C)[C@@H](O)C[C@@H]1CC[C@@](C)([C@H]2CC[C@@](C)([C@@H](C)O)O2)O1 [ionomycin]
cell-surface VISTA expression (VISTA+ BMDMs; HRH1-/- TAMs, ionomycin): increased cell-surface VISTA expression

NCCc1c[nH]cn1 [histamine]
T cell activation (CD8+ T cells; T cells co-cultured with histamine-treated macrophages vs vehicle-treated): significantly suppressed T cell activation
M2-like marker CD206 and M1-like marker MHCII (peritoneal macrophages): increased M2-like marker CD206 and reduced M1-like marker MHCII
